Some test systems named below: OVCAR-4 ovarian; SK-MEL-2 melanoma; COLO 205 colon; PC-3 prostate; KM12 colon; CAKI-1 renal; SR leukemia; SF-539 CNS; NCI-H522 lung; HL-60(TB) leukemia.
Common to all, as to assay: NCI-60 cell line screen, 48 h

Structures are written as SMILES.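 Interpolation was linear, between the two tested concentrations surrounding the appropriate level; five concentrations were tested over 48 hours in 96-well plates. GI50 is the concentration that inhibits growth by half. TGI is the concentration that stops growth completely.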

As for `O=C(N/N=C\c1cccc2ccccc12)Nc1ccccc1`, the TGI with OVCAR-4 ovarian, in the experiment on SK-MEL-2 melanoma, with COLO 205 colon, in the experiment with PC-3 prostate, in the experiment with KM12 colon and in the experiment with CAKI-1 renal was more than 100 µM throughout. In addition, the TGI in the experiment on SR leukemia is more than 100 µM.
As for `CC1(C)CC(=O)c2c(nc3c(ccc4ccccc43)c2-c2ccc(NC(=O)CCC(=O)Nc3ccc(-c4c5c(nc6c4ccc4ccccc46)CC(C)(C)CC5=O)cc3)cc2)C1`, the TGI in the experiment with SK-MEL-2 melanoma, in the experiment on COLO 205 colon, with SF-539 CNS, in the experiment on PC-3 prostate, in the experiment on KM12 colon and in the experiment on CAKI-1 renal was more than 100 µM in each case. The TGI in the experiment on SR leukemia, with NCI-H522 lung and with HL-60(TB) leukemia was more than 100 µM in each case.
On to `COc1ccc(/C=C2\C[C@H]3[C@@H]4CCC5=C/C(=N/O)CC[C@]5(C)[C@H]4CC[C@]3(C)\C2=N\O)cc1`, for which the TGI is more than 100 µM with OVCAR-4 ovarian; 72.4 µM with SK-MEL-2 melanoma; 43.9 µM in the experiment with COLO 205 colon; more than 100 µM in the experiment with PC-3 prostate; more than 100 µM with KM12 colon; more than 100 µM in the experiment with CAKI-1 renal. Further, the TGI stood at 86 µM in the experiment on SR leukemia and 91.7 µM in the experiment with NCI-H522 lung.
As for `Cc1ccc(Cl)cc1N=NC(=O)NNc1cc(Cl)ccc1C`, the TGI was 32.8 µM with SK-MEL-2 melanoma; 41 µM in the experiment with COLO 205 colon; 46.3 µM in the experiment on PC-3 prostate; more than 100 µM in the experiment on KM12 colon; 45.1 µM in the experiment on CAKI-1 renal; more than 100 µM with SR leukemia. Further, the TGI in the experiment with NCI-H522 lung is 27.6 µM; in the experiment with HL-60(TB) leukemia it was more than 100 µM.
With `COc1cccc2c1C(=O)c1c(O)c3c(c(O)c1C2=O)C[C@@](O)(C(=O)COC(=O)c1ccccc1)C[C@@H]3OC1CC(N)C(O)C(C)O1` (stereo not given in full), the GI50 in the experiment with SK-MEL-2 melanoma is 0.563 µM; with SF-539 CNS, 0.254 µM; in the experiment on PC-3 prostate, 0.194 µM; in the experiment with KM12 colon it was 0.215 µM; with CAKI-1 renal, 0.701 µM; in the experiment on HL-60(TB) leukemia, 0.0679 µM. Moreover, the TGI came to 1.99 µM in the experiment with SK-MEL-2 melanoma; 1.13 µM in the experiment with SF-539 CNS; 0.744 µM in the experiment on PC-3 prostate; 1.23 µM with KM12 colon; 2.11 µM in the experiment with CAKI-1 renal; 0.225 µM in the experiment with SR leukemia. Moreover, the TGI in the experiment on HL-60(TB) leukemia is 0.69 µM.
Turning to `O=c1[nH]c(SCc2cccc([N+](=O)[O-])c2)nc2nc[nH]c12`, the TGI with OVCAR-4 ovarian, in the experiment on SK-MEL-2 melanoma, with COLO 205 colon, with PC-3 prostate, in the experiment with KM12 colon and in the experiment on CAKI-1 renal was more than 100 µM each time. In addition, the TGI in the experiment on SR leukemia, with NCI-H522 lung and in the experiment on HL-60(TB) leukemia was more than 100 µM each time.
For `Cc1cccc2[nH]c3c(c(O)cc4[nH]c5cccc(C)c5c(=O)c43)c(=O)c12`, the TGI in the experiment on OVCAR-4 ovarian, with SK-MEL-2 melanoma, in the experiment with COLO 205 colon, with SF-539 CNS, with PC-3 prostate and in the experiment with KM12 colon was more than 10 µM in each case. Further, the TGI in the experiment on CAKI-1 renal, with NCI-H522 lung and in the experiment with HL-60(TB) leukemia was more than 10 µM throughout.
Regarding `CCCCc1ccc(-n2sc3ncc(-c4ccccc4)cc3c2=O)cc1`, the TGI in the experiment with OVCAR-4 ovarian, with SK-MEL-2 melanoma, with COLO 205 colon, in the experiment on PC-3 prostate, in the experiment with KM12 colon and in the experiment with CAKI-1 renal was more than 100 µM each time. In addition, the TGI with SR leukemia and in the experiment on HL-60(TB) leukemia was more than 100 µM throughout.
On to `CN=C(Nc1ccc(OC)c2ccccc12)SC`, for which the TGI in the experiment with OVCAR-4 ovarian, with COLO 205 colon, with SF-539 CNS, in the experiment on PC-3 prostate, with KM12 colon and in the experiment on CAKI-1 renal was more than 10 µM in each case. The TGI in the experiment with SR leukemia, with NCI-H522 lung and with HL-60(TB) leukemia was more than 10 µM throughout.
With `COc1cc(C(=O)Oc2c(C(C)=O)sc3c2c(=O)n(-c2ccccc2)c(=S)n3-c2ccccc2)cc(OC)c1OC`, the TGI was found to be 64.2 µM in the experiment on OVCAR-4 ovarian; 30.6 µM in the experiment on COLO 205 colon; 32.5 µM with SF-539 CNS; 48.8 µM with PC-3 prostate; 50.8 µM with KM12 colon; 76.5 µM in the experiment on CAKI-1 renal. The TGI is more than 100 µM with SR leukemia, 4.53 µM in the experiment with NCI-H522 lung and 49.7 µM in the experiment with HL-60(TB) leukemia.
In the case of `O=c1[nH]nc(-c2ccccc2)n1/N=C/c1ccccc1O`, the TGI in the experiment on OVCAR-4 ovarian, in the experiment with SK-MEL-2 melanoma, in the experiment on COLO 205 colon, in the experiment with SF-539 CNS, in the experiment with PC-3 prostate and in the experiment on KM12 colon was more than 100 µM in each case. The TGI in the experiment on CAKI-1 renal, with SR leukemia and with NCI-H522 lung was more than 100 µM each time.
In the case of `CC(=O)C(C(=O)c1ccc(C)cc1)[C@H]1OC(C)(C)O[C@H]1[C@H]1COC(C)(C)O1` (stereo not given in full), the TGI in the experiment with OVCAR-4 ovarian stood at 9.37 µM; in the experiment with SK-MEL-2 melanoma, 9.52 µM; in the experiment on COLO 205 colon, 18.7 µM; in the experiment on SF-539 CNS, 6.3 µM; with PC-3 prostate, 9.17 µM; in the experiment on KM12 colon, 18.9 µM. The values for the TGI with CAKI-1 renal, with SR leukemia and with NCI-H522 lung were 12.8 µM, more than 50 µM and 14.2 µM, respectively.
Consider `O=c1oc(-c2ccc(O)cc2)cc2cc(O)ccc12`, for which the TGI in the experiment with OVCAR-4 ovarian is more than 100 µM; in the experiment on SK-MEL-2 melanoma, more than 100 µM; with COLO 205 colon, 50.5 µM; with SF-539 CNS it was more than 100 µM; with PC-3 prostate, 94 µM; with KM12 colon, 68 µM. For the same molecule, the TGI in the experiment on CAKI-1 renal is more than 100 µM; with NCI-H522 lung it was more than 100 µM; in the experiment with HL-60(TB) leukemia, 48.6 µM.
`O=C(O)c1nc2ccc(C(F)(F)F)cc2nc1Nc1ccc(Cl)c(Cl)c1`: the TGI in the experiment with OVCAR-4 ovarian came out at 76.1 µM; in the experiment on SK-MEL-2 melanoma, 11.2 µM; with COLO 205 colon, 25.7 µM; with PC-3 prostate, 15.8 µM; in the experiment with KM12 colon, 20.5 µM; in the experiment on CAKI-1 renal, 30.6 µM. In addition, the values for the TGI in the experiment on SR leukemia, in the experiment on NCI-H522 lung and with HL-60(TB) leukemia were 14 µM, 15.2 µM and 21.9 µM, respectively.
